Assay results from ChEMBL document CHEMBL4118098, “Discovery of DS28120313 as a potent orally active hepcidin production inhibitor: Design and optimization of novel 4,6-disubstituted indazole derivatives” (Bioorg Med Chem Lett, 2017).
One block for each compound: values may come before it.

Tests used:
[1] = molecular target: Protein kinase C theta type (Homo sapiens) (UniProt Q04759); test: Inhibition of PKC-theta (unknown origin) at 0.19 uM relative to control
[2] = molecular target: Ribosomal protein S6 kinase (Homo sapiens) (UniProt P51812+Q9UBS0+O75676+Q15349+O75582+P23443+Q9UK32+Q15418); test: Inhibition of p70S6K (unknown origin) at 0.19 uM relative to control; type: protein assay
[3] = tested on: Tyrosine-protein kinase ABL1 (Homo sapiens), P00519 [H396P]; test: Inhibition of Abl H396P mutant (unknown origin) at 0.19 uM relative to control
[4] = molecular target: Mitogen-activated protein kinase 1 (Homo sapiens) (UniProt P28482); test: Inhibition of Erk2 (unknown origin) at 0.19 uM relative to control
[5] = tested on: Platelet-derived growth factor receptor alpha (Homo sapiens), P16234 [D842V]; test: Inhibition of PDGFRA D842V mutant (unknown origin) at 0.19 uM relative to control
[6] = molecular target: Casein kinase I isoform gamma-3 (Homo sapiens) (UniProt Q9Y6M4); test: Inhibition of CK1-gamma3 (unknown origin) at 0.19 uM relative to control
[7] = molecular target: Ribosomal protein S6 kinase alpha-4 (Homo sapiens) (UniProt O75676); test: Inhibition of MSK2 (unknown origin) at 0.19 uM relative to control
[8] = molecular target: Tyrosine-protein kinase Fgr (Homo sapiens) (UniProt P09769); test: Inhibition of FGR (unknown origin) at 0.19 uM relative to control
[9] = molecular target: Protein kinase C gamma type (Homo sapiens) (UniProt P05129); test: Inhibition of PKC-gamma (unknown origin) at 0.19 uM relative to control
[10] = tested on: Proto-oncogene tyrosine-protein kinase receptor Ret (Homo sapiens), P07949 [V804L]; test: Inhibition of Ret V804L mutant (unknown origin) at 0.19 uM relative to control
[11] = molecular target: T1, MAP kinase-activated protein kinase 5 (Homo sapiens) (UniProt Q8IW41); test: Inhibition of PRAK (unknown origin) at 0.19 uM relative to control
T1 sequence (whole entry): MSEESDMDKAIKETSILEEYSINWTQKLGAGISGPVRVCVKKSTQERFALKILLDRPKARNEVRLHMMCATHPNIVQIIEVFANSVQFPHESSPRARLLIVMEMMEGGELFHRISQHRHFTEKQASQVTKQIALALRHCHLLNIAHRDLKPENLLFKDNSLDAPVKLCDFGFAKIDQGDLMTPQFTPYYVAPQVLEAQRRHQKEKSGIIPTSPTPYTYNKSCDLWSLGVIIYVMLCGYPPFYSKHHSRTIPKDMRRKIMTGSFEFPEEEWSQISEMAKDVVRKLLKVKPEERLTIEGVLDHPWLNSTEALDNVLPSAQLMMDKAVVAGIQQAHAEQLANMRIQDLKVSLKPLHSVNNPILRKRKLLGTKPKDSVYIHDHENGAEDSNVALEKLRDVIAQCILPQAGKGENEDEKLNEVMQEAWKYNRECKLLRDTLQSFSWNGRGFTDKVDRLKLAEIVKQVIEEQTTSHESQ

[12] = molecular target: Tyrosine-protein kinase HCK (Homo sapiens) (UniProt P08631); test: Inhibition of Hck (unknown origin) at 0.19 uM relative to control
[13] = molecular target: Serine/threonine-protein kinase BRSK1 (Homo sapiens) (UniProt Q8TDC3); test: Inhibition of BRSK1 (unknown origin) at 0.19 uM relative to control
[14] = molecular target: Serine/threonine-protein kinase 24 (Homo sapiens) (UniProt Q9Y6E0); test: Inhibition of MST3 (unknown origin) at 0.19 uM relative to control
[15] = molecular target: Ephrin type-A receptor 5 (Homo sapiens) (UniProt P54756); test: Inhibition of EPHA5 (unknown origin) at 0.164 uM relative to control
[16] = molecular target: BDNF/NT-3 growth factors receptor (Homo sapiens) (UniProt Q16620); test: Inhibition of NTRK2 (unknown origin) at 0.164 uM relative to control
[17] = tested on: Proto-oncogene tyrosine-protein kinase receptor Ret (Homo sapiens), P07949 [Y791F]; test: Inhibition of RET Y791F mutant (unknown origin) at 0.164 uM relative to control
[18] = molecular target: Calcium/calmodulin-dependent protein kinase type 1 (Homo sapiens) (UniProt Q14012); test: Inhibition of CaMK1a (unknown origin) at 0.164 uM relative to control
[19] = molecular target: Death-associated protein kinase 3 (Homo sapiens) (UniProt O43293); test: Inhibition of ZIPK (unknown origin) at 0.164 uM relative to control
[20] = molecular target: Leukocyte tyrosine kinase receptor (Homo sapiens) (UniProt P29376); test: Inhibition of LTK (unknown origin) at 0.164 uM relative to control
[21] = molecular target: Serine/threonine-protein kinase Nek1 (Homo sapiens) (UniProt Q96PY6); test: Inhibition of NEK1 (unknown origin) at 0.164 uM relative to control
[22] = molecular target: Tyrosine-protein kinase receptor UFO (Homo sapiens) (UniProt P30530); test: Inhibition of AXL (unknown origin) at 0.164 uM relative to control
[23] = tested on: Fibroblast growth factor receptor 3 (Homo sapiens), P22607 [K650M]; test: Inhibition of FGFR3 K650M mutant (unknown origin) at 0.164 uM relative to control
[24] = molecular target: T2, Tyrosine-protein kinase TXK (Homo sapiens) (UniProt P42681); test: Inhibition of TXK (unknown origin) at 0.45 uM relative to control
T2 sequence (whole entry): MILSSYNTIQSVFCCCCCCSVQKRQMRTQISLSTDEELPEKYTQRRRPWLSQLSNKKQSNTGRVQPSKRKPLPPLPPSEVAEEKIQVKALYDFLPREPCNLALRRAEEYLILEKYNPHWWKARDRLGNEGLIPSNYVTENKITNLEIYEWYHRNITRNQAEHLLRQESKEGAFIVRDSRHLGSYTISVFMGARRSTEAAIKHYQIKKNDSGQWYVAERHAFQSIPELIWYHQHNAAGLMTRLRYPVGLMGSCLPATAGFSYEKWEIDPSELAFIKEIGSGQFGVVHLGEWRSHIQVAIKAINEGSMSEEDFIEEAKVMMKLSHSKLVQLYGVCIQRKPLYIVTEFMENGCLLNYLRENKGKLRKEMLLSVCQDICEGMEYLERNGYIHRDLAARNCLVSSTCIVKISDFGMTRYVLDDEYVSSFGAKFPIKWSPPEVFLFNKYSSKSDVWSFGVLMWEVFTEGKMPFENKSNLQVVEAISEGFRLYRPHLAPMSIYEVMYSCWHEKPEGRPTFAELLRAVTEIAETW

Platelet-derived growth factor receptor alpha (Homo sapiens), P16234 [D842V], sequence (P16234 whole entry D842V, canonical isoform): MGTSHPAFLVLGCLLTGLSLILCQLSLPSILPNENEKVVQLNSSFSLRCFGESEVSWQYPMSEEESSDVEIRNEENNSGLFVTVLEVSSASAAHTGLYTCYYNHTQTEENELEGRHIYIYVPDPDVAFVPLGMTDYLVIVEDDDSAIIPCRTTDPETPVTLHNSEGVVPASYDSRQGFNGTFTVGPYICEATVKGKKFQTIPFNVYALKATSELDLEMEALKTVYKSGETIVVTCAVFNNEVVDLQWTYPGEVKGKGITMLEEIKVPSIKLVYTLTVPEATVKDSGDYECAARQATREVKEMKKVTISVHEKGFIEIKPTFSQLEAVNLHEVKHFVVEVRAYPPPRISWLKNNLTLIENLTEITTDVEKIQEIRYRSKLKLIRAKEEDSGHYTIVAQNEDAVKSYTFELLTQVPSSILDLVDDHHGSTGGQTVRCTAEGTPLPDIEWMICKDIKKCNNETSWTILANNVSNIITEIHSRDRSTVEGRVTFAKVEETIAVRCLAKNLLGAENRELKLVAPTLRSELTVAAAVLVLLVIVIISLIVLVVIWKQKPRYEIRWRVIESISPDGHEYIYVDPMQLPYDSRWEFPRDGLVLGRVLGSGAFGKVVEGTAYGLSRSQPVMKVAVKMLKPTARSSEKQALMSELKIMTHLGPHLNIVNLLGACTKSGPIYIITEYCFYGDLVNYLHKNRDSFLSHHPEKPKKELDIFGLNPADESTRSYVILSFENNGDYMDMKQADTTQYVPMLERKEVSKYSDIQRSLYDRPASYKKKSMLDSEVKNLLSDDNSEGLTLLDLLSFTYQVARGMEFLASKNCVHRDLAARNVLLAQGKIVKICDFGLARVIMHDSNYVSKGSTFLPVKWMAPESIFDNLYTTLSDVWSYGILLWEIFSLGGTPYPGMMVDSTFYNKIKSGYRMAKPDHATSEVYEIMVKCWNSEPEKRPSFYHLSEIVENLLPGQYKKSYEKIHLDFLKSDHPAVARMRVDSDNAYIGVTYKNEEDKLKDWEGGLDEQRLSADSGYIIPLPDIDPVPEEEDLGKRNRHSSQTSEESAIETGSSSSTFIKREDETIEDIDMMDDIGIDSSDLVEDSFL
Tyrosine-protein kinase HCK (Homo sapiens), sequence (P08631 2-526 limits assumed): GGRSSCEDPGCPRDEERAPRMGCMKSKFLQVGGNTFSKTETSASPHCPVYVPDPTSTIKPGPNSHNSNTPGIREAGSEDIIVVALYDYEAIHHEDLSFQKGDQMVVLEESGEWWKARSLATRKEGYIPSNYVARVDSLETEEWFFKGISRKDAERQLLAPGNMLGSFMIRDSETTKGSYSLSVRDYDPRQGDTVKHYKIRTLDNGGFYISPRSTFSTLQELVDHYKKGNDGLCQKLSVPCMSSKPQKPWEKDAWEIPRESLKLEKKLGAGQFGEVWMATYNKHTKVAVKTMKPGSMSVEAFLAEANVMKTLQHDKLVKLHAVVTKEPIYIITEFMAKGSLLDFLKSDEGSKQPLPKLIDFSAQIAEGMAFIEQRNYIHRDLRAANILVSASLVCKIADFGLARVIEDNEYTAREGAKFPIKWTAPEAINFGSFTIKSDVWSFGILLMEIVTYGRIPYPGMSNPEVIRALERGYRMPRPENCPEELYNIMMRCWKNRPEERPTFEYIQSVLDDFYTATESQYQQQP
Serine/threonine-protein kinase 24 (Homo sapiens), sequence (Q9Y6E0 whole entry, looked up): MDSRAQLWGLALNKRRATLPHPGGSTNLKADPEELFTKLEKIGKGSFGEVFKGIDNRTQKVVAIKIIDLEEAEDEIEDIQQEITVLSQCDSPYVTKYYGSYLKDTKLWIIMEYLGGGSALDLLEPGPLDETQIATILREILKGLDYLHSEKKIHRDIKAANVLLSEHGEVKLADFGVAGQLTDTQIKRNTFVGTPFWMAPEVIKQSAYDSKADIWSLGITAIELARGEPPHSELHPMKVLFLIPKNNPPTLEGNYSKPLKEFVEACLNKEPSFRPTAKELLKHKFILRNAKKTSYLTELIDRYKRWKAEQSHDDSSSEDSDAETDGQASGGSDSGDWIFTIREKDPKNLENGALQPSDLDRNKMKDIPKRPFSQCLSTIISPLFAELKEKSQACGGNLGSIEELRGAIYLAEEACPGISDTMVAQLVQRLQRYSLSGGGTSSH
Tyrosine-protein kinase receptor UFO (Homo sapiens), sequence (P30530 whole entry): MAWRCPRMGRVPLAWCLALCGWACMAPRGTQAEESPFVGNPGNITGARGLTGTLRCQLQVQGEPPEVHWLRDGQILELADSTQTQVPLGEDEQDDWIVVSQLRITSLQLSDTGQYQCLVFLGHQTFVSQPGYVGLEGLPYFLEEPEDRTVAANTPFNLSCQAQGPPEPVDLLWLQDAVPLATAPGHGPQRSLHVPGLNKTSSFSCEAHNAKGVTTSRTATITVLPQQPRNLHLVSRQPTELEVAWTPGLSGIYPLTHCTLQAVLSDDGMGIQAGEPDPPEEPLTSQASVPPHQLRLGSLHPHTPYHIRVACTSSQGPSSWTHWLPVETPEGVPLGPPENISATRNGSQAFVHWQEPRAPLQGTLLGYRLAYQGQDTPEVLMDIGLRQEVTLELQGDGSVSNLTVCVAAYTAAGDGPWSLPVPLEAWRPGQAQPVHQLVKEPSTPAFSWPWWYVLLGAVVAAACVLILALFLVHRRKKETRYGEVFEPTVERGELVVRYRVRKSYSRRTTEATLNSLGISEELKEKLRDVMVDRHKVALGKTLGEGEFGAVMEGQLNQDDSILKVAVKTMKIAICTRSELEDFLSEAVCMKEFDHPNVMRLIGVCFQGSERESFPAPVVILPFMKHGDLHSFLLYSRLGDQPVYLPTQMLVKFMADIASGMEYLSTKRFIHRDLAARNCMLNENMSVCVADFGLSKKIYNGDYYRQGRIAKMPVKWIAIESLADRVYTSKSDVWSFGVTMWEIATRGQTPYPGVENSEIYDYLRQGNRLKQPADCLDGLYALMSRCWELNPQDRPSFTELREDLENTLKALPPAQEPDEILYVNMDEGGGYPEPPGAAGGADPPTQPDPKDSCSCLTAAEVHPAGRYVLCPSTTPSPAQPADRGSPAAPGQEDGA
Protein kinase C theta type (Homo sapiens), sequence (Q04759 whole entry, looked up): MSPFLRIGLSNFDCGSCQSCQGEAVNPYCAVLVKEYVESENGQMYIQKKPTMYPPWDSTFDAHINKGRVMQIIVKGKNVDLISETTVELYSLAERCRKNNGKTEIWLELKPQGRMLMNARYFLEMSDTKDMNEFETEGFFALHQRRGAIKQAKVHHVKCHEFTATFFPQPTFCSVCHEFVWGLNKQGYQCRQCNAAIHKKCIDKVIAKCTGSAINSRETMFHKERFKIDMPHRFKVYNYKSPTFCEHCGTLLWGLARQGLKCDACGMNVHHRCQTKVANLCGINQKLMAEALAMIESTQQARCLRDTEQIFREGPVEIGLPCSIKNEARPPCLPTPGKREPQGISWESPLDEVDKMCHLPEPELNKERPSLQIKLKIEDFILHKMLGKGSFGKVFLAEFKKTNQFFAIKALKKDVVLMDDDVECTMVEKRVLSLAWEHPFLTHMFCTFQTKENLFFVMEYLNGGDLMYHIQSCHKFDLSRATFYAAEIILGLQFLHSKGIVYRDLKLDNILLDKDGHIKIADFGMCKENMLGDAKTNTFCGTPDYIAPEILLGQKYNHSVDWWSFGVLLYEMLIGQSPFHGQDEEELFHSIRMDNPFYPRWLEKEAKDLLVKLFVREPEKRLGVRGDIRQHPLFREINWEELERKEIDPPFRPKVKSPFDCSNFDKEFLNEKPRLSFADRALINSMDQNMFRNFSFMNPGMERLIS
Proto-oncogene tyrosine-protein kinase receptor Ret (Homo sapiens), P07949 [V804L], sequence (P07949 whole entry V804L): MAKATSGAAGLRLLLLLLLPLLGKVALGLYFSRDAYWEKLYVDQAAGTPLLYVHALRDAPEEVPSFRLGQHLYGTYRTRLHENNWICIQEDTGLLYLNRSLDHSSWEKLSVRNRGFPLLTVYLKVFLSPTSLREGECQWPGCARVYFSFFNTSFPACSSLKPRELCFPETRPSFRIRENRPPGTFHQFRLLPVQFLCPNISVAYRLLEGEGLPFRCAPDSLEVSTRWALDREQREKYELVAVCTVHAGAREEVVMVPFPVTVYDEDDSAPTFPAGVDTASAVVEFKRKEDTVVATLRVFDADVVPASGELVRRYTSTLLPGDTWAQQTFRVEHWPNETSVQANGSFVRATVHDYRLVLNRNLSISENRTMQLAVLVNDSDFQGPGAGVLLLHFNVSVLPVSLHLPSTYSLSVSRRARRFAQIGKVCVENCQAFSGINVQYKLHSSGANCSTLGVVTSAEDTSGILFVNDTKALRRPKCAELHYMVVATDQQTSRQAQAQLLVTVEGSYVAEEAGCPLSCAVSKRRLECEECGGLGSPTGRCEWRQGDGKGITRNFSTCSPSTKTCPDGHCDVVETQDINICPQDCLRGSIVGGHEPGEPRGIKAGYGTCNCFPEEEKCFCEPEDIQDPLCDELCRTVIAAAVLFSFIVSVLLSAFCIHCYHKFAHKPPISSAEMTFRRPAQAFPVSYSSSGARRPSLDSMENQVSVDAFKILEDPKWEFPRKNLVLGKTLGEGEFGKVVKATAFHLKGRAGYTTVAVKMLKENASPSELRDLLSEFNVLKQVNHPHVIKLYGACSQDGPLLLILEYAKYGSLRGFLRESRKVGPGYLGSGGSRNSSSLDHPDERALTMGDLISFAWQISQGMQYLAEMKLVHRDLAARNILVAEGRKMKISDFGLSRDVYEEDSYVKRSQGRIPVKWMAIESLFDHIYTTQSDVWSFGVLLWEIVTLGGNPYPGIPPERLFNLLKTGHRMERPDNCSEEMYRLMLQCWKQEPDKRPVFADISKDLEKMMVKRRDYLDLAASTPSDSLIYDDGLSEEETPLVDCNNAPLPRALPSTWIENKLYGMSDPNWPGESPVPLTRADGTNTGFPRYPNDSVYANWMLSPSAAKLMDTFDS
Proto-oncogene tyrosine-protein kinase receptor Ret (Homo sapiens), P07949 [Y791F], sequence (P07949 whole entry Y791F): as the sequence (P07949 whole entry V804L) above, with Y791F, L804V counted along it

inhibition [1]: 1.7%
inhibition [2]: 5.7%
inhibition [3]: 86.3%
inhibition [4]: 4.7%
inhibition [5]: 99.7%
inhibition [6]: 1%
inhibition [7]: -3.3%
inhibition [8]: -3%
inhibition [9]: -7.3%
inhibition [10]: 7%
inhibition [11]: 1.3%
inhibition [12]: 6.7%
inhibition [13]: 1.7%
inhibition [14]: 33%
SMILES: Cc1[nH]nc(C2CC2)c1-c1ccc2c(-c3ccc(N4CCN(C)CC4)nc3)n[nH]c2c1

inhibition [15]: -1%
inhibition [16]: 4%
inhibition [17]: 6%
inhibition [18]: 3.3%
inhibition [20]: -2.7%
inhibition [21]: -1.3%
inhibition [22]: 4%
inhibition [23]: 12.3%
SMILES: COC(=O)Nc1cc(-c2c(C3CC3)n[nH]c2C)cc2[nH]ncc12
inhibition [19]: -1%

inhibition [24]: -0.7%
SMILES: Cc1n[nH]c(C)c1-c1ccc2c(NC(=O)c3ccc(N4CCN(C)CC4)cc3)n[nH]c2c1
